Results from ChEMBL document CHEMBL1201862, “PubChem BioAssay data set” (2004).
Activity calls are given as the source filed them.

Tests used:
[1] = bead-based luminescence quenchers, dual-tagged ARNT – biochemical, AlphaScreen, cherry-pick, artefact control for ARNT-TACC3 interaction inhibitor project, dose response (AID 651705); format: functional;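 also: AlphaScreen bead proximity signal that flags compounds interfering with the detection technology; potency reflects signal decrease which marks the compound as an assay artifact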
A549 = test: viability loss in A549 cells – cell-based, plate reader, cherry-pick samples, cytotoxicity control, dose response (AID 687028); format: functional; conditions: Homo sapiens
BHK-21 = test: viability loss in BHK-21 cells – cell-based, plate reader, cherry-pick samples, cytotoxicity control, dose response (AID 687030); format: functional; conditions: Mesocricetus auratus
Vero = test: viability loss in Vero cells – cell-based, plate reader, cherry-pick samples, cytotoxicity control, dose response (AID 687020); format: functional; conditions: Chlorocebus sabaeus
[2] = inhibition of ARNT PAS-B/TACC3 complex formation – biochemical, AlphaScreen, cherry-picked samples, confirmation (AID 651703); format: functional, Homo sapiens;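 also: His-tagged ARNT PAS-B domain paired with GST-TACC3 E629A dimer coactivator fragment; potency of inhibitors that break up the complex and lower AlphaScreen signal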
[3] = molecular target: T1, DNA repair protein RAD52 homolog (Homo sapiens, UniProt P43351); format: functional, biochemical
T1 sequence (P43351 whole entry): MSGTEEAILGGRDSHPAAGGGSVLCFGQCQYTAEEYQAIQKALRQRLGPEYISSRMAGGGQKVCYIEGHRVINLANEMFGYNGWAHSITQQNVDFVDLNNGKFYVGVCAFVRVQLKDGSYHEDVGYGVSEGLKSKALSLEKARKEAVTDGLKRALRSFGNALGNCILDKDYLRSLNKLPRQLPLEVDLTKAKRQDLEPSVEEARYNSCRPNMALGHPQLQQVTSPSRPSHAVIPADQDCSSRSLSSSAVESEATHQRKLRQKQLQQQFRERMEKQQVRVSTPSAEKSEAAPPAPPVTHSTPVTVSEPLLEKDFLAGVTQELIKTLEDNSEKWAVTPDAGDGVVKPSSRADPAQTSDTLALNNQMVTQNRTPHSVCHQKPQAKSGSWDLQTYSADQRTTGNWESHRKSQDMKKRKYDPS

[4] = molecular target: 72 kDa type IV collagenase (Homo sapiens, UniProt P08253); test: Dose Response validation of uHTS RPN11 inhibitor hits using a MMP-2 Fluorescence assay.; format: functional
Sequence of 72 kDa type IV collagenase (P08253 whole entry): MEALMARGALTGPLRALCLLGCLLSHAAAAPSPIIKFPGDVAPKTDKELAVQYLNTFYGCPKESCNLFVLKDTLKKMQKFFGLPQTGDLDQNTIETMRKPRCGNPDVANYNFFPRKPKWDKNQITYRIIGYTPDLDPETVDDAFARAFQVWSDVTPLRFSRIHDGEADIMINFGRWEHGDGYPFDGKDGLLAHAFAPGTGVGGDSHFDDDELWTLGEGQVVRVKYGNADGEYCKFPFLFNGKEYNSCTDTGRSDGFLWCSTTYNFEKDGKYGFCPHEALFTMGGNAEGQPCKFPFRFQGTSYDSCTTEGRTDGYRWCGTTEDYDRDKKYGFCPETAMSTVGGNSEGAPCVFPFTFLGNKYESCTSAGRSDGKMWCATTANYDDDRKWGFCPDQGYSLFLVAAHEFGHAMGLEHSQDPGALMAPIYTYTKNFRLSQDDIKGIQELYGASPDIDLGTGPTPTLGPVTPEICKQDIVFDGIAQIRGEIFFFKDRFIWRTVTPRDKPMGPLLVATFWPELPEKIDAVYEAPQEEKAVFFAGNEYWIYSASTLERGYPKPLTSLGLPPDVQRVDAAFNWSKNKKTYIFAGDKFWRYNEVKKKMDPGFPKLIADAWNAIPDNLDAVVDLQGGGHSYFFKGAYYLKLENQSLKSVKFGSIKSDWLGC

[5] = cytotoxicity toward MDA-MB-231 breast cancer cells – cell-based, CellTiter-Glo luminescence, cherry-pick, cytotoxicity control for RAD54 inhibitor project, dose response (AID 651692); format: functional
[6] = molecular target: T2, DNA repair and recombination protein RAD54-like (Homo sapiens, UniProt Q92698); test: RAD54 Holliday junction migration blockers – biochemical, fluorescence, cherry-picked samples, dose series, confirmation (AID 651657); format: functional
T2 sequence (Q92698 whole entry): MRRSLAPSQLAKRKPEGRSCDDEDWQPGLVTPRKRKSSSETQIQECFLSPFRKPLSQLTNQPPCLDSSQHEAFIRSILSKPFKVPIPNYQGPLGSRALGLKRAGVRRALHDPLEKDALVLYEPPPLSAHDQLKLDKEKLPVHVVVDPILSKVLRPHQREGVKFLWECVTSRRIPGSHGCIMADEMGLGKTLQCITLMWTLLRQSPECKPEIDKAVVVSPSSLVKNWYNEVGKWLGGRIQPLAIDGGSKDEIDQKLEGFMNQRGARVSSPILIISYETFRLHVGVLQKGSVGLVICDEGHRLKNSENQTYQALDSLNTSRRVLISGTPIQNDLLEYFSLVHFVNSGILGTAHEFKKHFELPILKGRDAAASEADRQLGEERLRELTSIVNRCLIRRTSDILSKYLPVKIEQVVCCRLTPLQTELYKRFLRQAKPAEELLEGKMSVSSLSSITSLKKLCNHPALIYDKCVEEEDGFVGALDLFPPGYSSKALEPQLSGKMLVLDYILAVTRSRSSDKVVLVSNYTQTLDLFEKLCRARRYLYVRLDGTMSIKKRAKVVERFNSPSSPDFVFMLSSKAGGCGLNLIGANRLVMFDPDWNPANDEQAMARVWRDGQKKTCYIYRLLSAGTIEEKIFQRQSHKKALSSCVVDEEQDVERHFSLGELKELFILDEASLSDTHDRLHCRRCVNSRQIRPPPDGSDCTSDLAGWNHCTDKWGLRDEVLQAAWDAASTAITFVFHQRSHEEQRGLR

[7] = molecular target: 26S proteasome non-ATPase regulatory subunit 14 (Homo sapiens, UniProt O00487); test: inhibition of proteasome subunit RPN11 – biochemical, fluorescence polarization, uHTS hits, confirmation (AID 602368); format: functional
Sequence of 26S proteasome non-ATPase regulatory subunit 14 (O00487 whole entry): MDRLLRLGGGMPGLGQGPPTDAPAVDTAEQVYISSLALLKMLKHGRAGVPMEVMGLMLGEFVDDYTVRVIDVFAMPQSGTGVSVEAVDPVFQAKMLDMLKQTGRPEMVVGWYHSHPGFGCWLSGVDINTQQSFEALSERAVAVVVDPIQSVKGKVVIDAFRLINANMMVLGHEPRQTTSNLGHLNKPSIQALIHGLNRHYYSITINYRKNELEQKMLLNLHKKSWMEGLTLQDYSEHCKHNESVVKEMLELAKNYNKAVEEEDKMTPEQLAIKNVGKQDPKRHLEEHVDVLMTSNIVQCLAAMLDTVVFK

Prothrombin = Prothrombin (Bos taurus, UniProt P00735); test: thrombin protease inhibitors – biochemical, fluorescence polarization, uHTS hits, dose response (AID 602369); format: functional
[8] = molecular target: T3, Low molecular weight phosphotyrosine protein phosphatase (Homo sapiens, UniProt P24666); format: functional; conditions: read-out: IC50_Mean
T3 sequence (P24666 whole entry): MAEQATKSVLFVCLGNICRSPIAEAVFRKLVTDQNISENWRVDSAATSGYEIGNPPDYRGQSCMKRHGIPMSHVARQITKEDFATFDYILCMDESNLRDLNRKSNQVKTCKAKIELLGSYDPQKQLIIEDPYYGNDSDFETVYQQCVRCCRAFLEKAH

[9] = molecular target: Tyrosine-protein phosphatase non-receptor type 11 (Homo sapiens, UniProt Q06124); test: PTPN11 enzyme inhibitors – biochemical, selectivity assay for STEP inhibitor project, dose response (AID 602367); format: functional; conditions: read-out: IC50_Mean
Sequence of Tyrosine-protein phosphatase non-receptor type 11 (Q06124 whole entry): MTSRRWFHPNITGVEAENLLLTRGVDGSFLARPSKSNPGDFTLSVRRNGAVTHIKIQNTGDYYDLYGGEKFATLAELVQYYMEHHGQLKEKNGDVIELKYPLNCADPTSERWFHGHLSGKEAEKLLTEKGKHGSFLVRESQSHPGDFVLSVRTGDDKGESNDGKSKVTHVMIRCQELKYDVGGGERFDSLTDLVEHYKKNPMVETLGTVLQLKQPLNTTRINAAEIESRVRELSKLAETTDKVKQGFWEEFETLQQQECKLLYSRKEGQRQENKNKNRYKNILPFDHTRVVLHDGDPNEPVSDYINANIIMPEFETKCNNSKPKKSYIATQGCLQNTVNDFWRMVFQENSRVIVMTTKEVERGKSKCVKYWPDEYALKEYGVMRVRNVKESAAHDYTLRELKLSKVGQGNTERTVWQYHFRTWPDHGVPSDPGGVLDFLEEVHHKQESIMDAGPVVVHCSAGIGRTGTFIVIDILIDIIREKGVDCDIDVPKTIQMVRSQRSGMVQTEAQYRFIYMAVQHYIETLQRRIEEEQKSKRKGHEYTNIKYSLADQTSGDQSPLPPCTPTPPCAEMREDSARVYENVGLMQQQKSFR

[10] = molecular target: T4, Tyrosine-protein phosphatase non-receptor type 22 (Homo sapiens, UniProt Q9Y2R2); test: lymphoid phosphatase LYP inhibitors – biochemical, selectivity assay for STEP inhibitor project, dose response (AID 624241); format: functional
T4 sequence (Q9Y2R2 whole entry): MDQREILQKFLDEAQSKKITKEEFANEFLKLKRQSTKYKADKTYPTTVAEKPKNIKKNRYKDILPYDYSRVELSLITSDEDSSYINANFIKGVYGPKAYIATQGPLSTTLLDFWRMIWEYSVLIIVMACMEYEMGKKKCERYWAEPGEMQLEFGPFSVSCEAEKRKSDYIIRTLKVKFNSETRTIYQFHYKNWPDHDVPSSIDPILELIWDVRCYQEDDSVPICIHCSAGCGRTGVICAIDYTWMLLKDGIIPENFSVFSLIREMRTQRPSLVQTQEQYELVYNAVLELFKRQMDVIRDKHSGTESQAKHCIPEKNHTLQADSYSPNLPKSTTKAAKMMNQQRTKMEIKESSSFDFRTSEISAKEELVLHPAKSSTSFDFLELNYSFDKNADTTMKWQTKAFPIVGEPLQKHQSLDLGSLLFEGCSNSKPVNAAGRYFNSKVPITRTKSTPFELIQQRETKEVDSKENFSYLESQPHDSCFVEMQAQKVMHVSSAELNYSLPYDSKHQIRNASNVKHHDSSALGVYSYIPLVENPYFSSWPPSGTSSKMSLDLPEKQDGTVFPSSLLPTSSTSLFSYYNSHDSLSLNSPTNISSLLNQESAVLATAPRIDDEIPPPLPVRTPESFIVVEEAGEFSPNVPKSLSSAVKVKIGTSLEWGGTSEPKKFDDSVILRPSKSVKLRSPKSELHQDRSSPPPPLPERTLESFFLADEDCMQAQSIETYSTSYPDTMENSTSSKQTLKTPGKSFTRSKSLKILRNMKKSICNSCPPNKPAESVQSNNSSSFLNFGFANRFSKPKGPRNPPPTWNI

[11] = molecular target: Dual specificity protein phosphatase 3 (Homo sapiens, UniProt P51452); test: VHR phosphatase inhibition, dose response, selectivity assay for STEP inhibitor project, biochemical (AID 602374); format: functional; conditions: read-out: IC50_Mean
Sequence of Dual specificity protein phosphatase 3 (P51452 whole entry): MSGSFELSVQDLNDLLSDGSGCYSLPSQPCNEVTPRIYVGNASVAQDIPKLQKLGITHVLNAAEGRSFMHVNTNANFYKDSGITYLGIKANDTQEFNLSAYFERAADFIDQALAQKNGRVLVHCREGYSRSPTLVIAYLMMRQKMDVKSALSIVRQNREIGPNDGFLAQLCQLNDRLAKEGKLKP

[12] = molecular target: T3, Low molecular weight phosphotyrosine protein phosphatase; format: functional; conditions: read-out: IC50_Mean; remark: listed apart in the source
[13] = molecular target: T4, Tyrosine-protein phosphatase non-receptor type 22; test: PTPN22 enzyme inhibitors – biochemical, fluorescence, LYP catalytic domain, selectivity assay for LMPTP inhibitor project, dose response (AID 652006); format: functional; conditions: read-out: IC50_Mean
[14] = molecular target: Tyrosine-protein phosphatase non-receptor type 5 (Homo sapiens, UniProt P54829); test: PTPN5 enzyme inhibition – biochemical, fluorescence intensity, uHTS hits, confirmation (AID 602372); format: functional; conditions: read-out: IC50_Mean
Sequence of Tyrosine-protein phosphatase non-receptor type 5 (P54829 whole entry): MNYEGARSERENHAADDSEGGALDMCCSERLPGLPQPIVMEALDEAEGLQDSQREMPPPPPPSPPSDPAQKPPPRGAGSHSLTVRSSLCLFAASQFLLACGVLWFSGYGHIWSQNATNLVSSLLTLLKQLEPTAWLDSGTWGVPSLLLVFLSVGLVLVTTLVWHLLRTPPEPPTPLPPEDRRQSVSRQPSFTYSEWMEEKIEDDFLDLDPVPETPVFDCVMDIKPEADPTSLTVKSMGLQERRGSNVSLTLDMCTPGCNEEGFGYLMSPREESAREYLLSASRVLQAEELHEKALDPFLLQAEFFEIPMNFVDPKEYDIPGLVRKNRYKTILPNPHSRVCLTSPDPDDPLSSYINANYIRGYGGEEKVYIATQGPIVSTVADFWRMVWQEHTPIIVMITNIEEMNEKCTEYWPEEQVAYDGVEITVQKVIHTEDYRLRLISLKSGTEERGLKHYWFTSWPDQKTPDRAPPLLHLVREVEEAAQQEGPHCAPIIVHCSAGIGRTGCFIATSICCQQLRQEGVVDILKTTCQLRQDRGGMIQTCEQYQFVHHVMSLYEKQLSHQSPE

Protein Wnt-3a = Protein Wnt-3a (Mus musculus, UniProt P27467); test: SAR analysis of small molecule antagonists of Gli-SUFU in a Wnt3a luminescent reporter assay.; format: functional
Sequence of Protein Wnt-3a (P27467 whole entry): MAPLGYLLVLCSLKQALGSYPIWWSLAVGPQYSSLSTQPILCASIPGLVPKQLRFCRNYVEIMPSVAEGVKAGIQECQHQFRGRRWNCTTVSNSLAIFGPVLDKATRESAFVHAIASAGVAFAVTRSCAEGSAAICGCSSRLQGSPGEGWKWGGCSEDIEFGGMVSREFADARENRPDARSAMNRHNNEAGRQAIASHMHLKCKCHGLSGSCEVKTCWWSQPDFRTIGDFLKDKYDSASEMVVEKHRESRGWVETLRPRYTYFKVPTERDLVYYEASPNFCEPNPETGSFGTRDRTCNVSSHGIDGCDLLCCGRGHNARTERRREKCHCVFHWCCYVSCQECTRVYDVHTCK

[15] = anti-trypanosomal activity in BESM host cells – imaging, CA-I/72 strain, bovine embryo skeletal muscle, dry powder, dose response (AID 651885); format: functional, cell-based

Question: With `O=C(NCCCn1ccnc1)Nc1cccc(Cl)c1` as the molecule, how does the AC50 [1] read?
Answer: 116 µM (active)

Question: What does the source list for `N#Cc1c(Nc2ccccc2)[n+]([O-])c2ccc(Cl)cc2[n+]1[O-]`?
Answer: AC50 (A549): 20.7 µM (active); AC50 (BHK-21): 38.5 µM (active); AC50 (Vero): 22.5 µM (active)

Question: For `O=C(COC(=O)c1ccc([N+](=O)[O-])o1)Nc1ccc(F)cc1`, which AC50 [2] is on record?
Answer: 109 µM (active)

Question: With `COC(=O)c1c(NC(=O)c2ccc(S(=O)(=O)N3CC(C)OC(C)C3)cc2)sc2c1CCN(C)C2` (stereo not given) as the molecule, how does the AC50 [3] read?
Answer: 11.8 µM (active)

Question: And the IC50 [4]?
Answer: > 100 µM (inactive)

Question: And the AC50 [5]?
Answer: 24.6 µM (active)

Question: What about the AC50 [6] of the same molecule?
Answer: 55.4 µM (active)

Question: And the IC50 [7]?
Answer: 29.5 µM (active)

Question: What about the IC50 (Prothrombin) of the same molecule?
Answer: 37.4 µM (active)

Question: Which results are given for `O=C(N/N=C/c1ccc(Br)s1)c1cccc([N+](=O)[O-])c1`?
Answer: IC50 [8]: 9.2 µM (active); IC50 [9]: 2.15 µM (active); IC50 [10]: 64.9 µM (inactive); IC50 [11]: 3.4 µM (active); IC50 [12]: 9.56 µM (active); IC50 [13]: 18.2 µM (active); IC50 [14]: 7.95 µM (active)

Question: Which IC50 (Protein Wnt-3a) does the source give for `CC1CCN(c2cc(NC(=O)c3ccccc3)ncn2)CC1` here?
Answer: > 21.8 µM (inactive)

Question: With `CC(C)N1C[C@H](C)[C@@H](CN(C)C(=O)OC(C)(C)C)Oc2c(NC(=O)c3ccccn3)cccc2C1=O` as the molecule, how does the IC50 [15] read?
Answer: 10.3 µM (inconclusive)
